# Measurements as given in the supplement of paper PMC10307832.
# Columns and labels:
# Assay in all cases: relative viability (nuclei count vs DMSO), 5 days (fraction); higher = more cells survive
# [1] = compound: O=C(Nc1cccc(C(F)(F)F)c1)Nc1cc(S(=O)(=O)NC2CC2)ccc1-c1ccsc1 [AGI-6780]
# Outline: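 Following overnight incubation at 37 °C, lung cancer cell lines in 1536-well plates were pinned with five library-drug doses (not always all listed) in √10 steps on vehicle-anchored plates. The cells then spent 5 days without medium change before a combined fix, permeabilisation and Hoechst stain, 4× imaging and MetaXpress nuclear counts. Viability is the treated-to-vehicle ratio of nuclei, taken as the median across plates. Only plates with control CV below 25% and at least one doubling passed.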
# [2] = compound: O=C(Nc1cccc(C(F)(F)F)c1)Nc1cc(S(=O)(=O)NC2CC2)ccc1-c1ccsc1 [AGI-6780] + CC(=O)Nc1cccc(-n2c(=O)n(C3CC3)c(=O)c3c(Nc4ccc(I)cc4F)n(C)c(=O)c(C)c32)c1 [Trametinib] (partner 0.02 µM)
# Outline: (§1)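 Relative viability divides the nuclei count in treated wells by that in vehicle wells. Lung cancer cell lines were seeded in 1536-well plates, dosed by pin tool the next day, and fixed and stained after 5 days in one step with final 0.05% Triton X-100, 1% formaldehyde and 1 ug/ml Hoechst. Dosing was a single drug or a fixed anchor-drug dose plus five library-drug doses (not always all listed) in √10 steps, and values are medians of duplicate plates imaged at 4×.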
# [3] = compound: O=C(Nc1cccc(C(F)(F)F)c1)Nc1cc(S(=O)(=O)NC2CC2)ccc1-c1ccsc1 [AGI-6780] + CC(=O)c1c(C)c2cnc(Nc3ccc(N4CCNCC4)cn3)nc2n(C2CCCC2)c1=O [Palbociclib] (partner 0.5 µM)
# Outline: as §1
# [4] = compound: O=C(Nc1cccc(C(F)(F)F)c1)Nc1cc(S(=O)(=O)NC2CC2)ccc1-c1ccsc1 [AGI-6780] + CCNC(=O)c1noc(-c2cc(C(C)C)c(O)cc2O)c1-c1ccc(CN2CCOCC2)cc1 [Luminespib] (partner 0.01 µM)
# Outline: as §1
# [5] = compound: O=C(Nc1cccc(C(F)(F)F)c1)Nc1cc(S(=O)(=O)NC2CC2)ccc1-c1ccsc1 [AGI-6780] + COc1cccc2cc(-c3nc([C@H]4CC[C@H](C(=O)O)CC4)n4ncnc(N)c34)[nH]c12 [OSI-027] (partner 0.5 µM)
# Outline: as §1
# [6] = compound: O=C(Nc1cccc(C(F)(F)F)c1)Nc1cc(S(=O)(=O)NC2CC2)ccc1-c1ccsc1 [AGI-6780] + Cc1cc(Nc2cc(N3CCN(C)CC3)nc(Sc3ccc(NC(=O)C4CC4)cc3)n2)n[nH]1 [Tozasertib] (partner 0.1 µM)
# Outline: as §1
# [7] = compound: O=C(Nc1cccc(C(F)(F)F)c1)Nc1cc(S(=O)(=O)NC2CC2)ccc1-c1ccsc1 [AGI-6780] + Cc1nc(Nc2ncc(C(=O)Nc3c(C)cccc3Cl)s2)cc(N2CCN(CCO)CC2)n1 [Dasatinib] (partner 0.075 µM)
# Outline: as §1
# [8] = compound: O=C(Nc1cccc(C(F)(F)F)c1)Nc1cc(S(=O)(=O)NC2CC2)ccc1-c1ccsc1 [AGI-6780] + N=C(N)NC(=N)NCCc1ccccc1 [Phenformin] (partner 250 µM)
# Outline: as §1
# [9] = compound: O=C(Nc1cccc(C(F)(F)F)c1)Nc1cc(S(=O)(=O)NC2CC2)ccc1-c1ccsc1 [AGI-6780] + NC(=O)Nc1cc(-c2cccc(F)c2)sc1C(=O)N[C@H]1CCCNC1 [AZD7762] (partner 0.2 µM)
# Outline: as §1
# [10] = compound: O=C(Nc1cccc(C(F)(F)F)c1)Nc1cc(S(=O)(=O)NC2CC2)ccc1-c1ccsc1 [AGI-6780] + Nc1nc2[nH]cc(CCc3ccc(C(=O)N[C@@H](CCC(=O)O)C(=O)O)cc3)c2c(=O)[nH]1 [Pemetrexed] (partner 0.2 µM)
# Outline: as §1
# [11] = compound: O=C(Nc1cccc(C(F)(F)F)c1)Nc1cc(S(=O)(=O)NC2CC2)ccc1-c1ccsc1 [AGI-6780] + Nc1ncn([C@H]2C[C@H](O)[C@@H](CO)O2)c(=O)n1 [Decitabine] (partner 2 µM)
# Outline: as §1
# [12] = compound: O=C(Nc1cccc(C(F)(F)F)c1)Nc1cc(S(=O)(=O)NC2CC2)ccc1-c1ccsc1 [AGI-6780] + O=C(CCCCCCC(=O)Nc1ccccc1)NO [Vorinostat] (partner 1 µM)
# Outline: as §1
# [13] = compound: O=C(Nc1cccc(C(F)(F)F)c1)Nc1cc(S(=O)(=O)NC2CC2)ccc1-c1ccsc1 [AGI-6780] + O=C(c1cc(Cc2n[nH]c(=O)c3ccccc23)ccc1F)N1CCN(C(=O)C2CC2)CC1 [Olaparib] (partner 8 µM)
# Outline: as §1
# [14] = compound: O=C(Nc1cccc(C(F)(F)F)c1)Nc1cc(S(=O)(=O)NC2CC2)ccc1-c1ccsc1 [AGI-6780] + COc1cc2c(Oc3ccc(NC(=O)C4(C(=O)Nc5ccc(F)cc5)CC4)cc3F)ccnc2cc1OCCCN1CCOCC1 [Foretinib] (partner 0.25 µM)
# Outline: as §1
cell line,measurement,setting,value
NCI-H522,relative viability,[1]; 0.08 µM,0.972
same,relative viability,[1]; 0.253 µM,0.965
same,relative viability,[1]; 0.8 µM,0.909
same,relative viability,[1]; 2.53 µM,0.865
same,relative viability,[1]; 8 µM,0.962
same,relative viability,[2]; first compound 0.08 µM,0.667
same,relative viability,[2]; first compound 0.253 µM,0.801
same,relative viability,[2]; first compound 0.8 µM,0.75
same,relative viability,[2]; first compound 8 µM,0.645
same,relative viability,[3]; first compound 0.08 µM,0.97
same,relative viability,[3]; first compound 0.253 µM,0.972
same,relative viability,[3]; first compound 0.8 µM,0.968
same,relative viability,[3]; first compound 8 µM,0.86
same,relative viability,[4]; first compound 0.08 µM,1.18
same,relative viability,[4]; first compound 0.253 µM,1.14
same,relative viability,[4]; first compound 0.8 µM,1.1
same,relative viability,[4]; first compound 2.53 µM,1.12
same,relative viability,[4]; first compound 8 µM,1.17
same,relative viability,[5]; first compound 0.08 µM,0.782
same,relative viability,[5]; first compound 0.253 µM,0.724
same,relative viability,[5]; first compound 0.8 µM,0.804
same,relative viability,[5]; first compound 2.53 µM,0.564
same,relative viability,[5]; first compound 8 µM,0.751
same,relative viability,[6]; first compound 0.08 µM,0.485
same,relative viability,[6]; first compound 0.253 µM,0.5
same,relative viability,[6]; first compound 0.8 µM,0.606
same,relative viability,[6]; first compound 2.53 µM,0.534
same,relative viability,[6]; first compound 8 µM,0.53
same,relative viability,[7]; first compound 0.08 µM,0.941
same,relative viability,[7]; first compound 0.253 µM,0.85
same,relative viability,[7]; first compound 0.8 µM,1.01
same,relative viability,[7]; first compound 2.53 µM,0.812
same,relative viability,[7]; first compound 8 µM,0.836
same,relative viability,[8]; first compound 0.08 µM,0.706
same,relative viability,[8]; first compound 0.253 µM,0.659
same,relative viability,[8]; first compound 0.8 µM,0.633
same,relative viability,[8]; first compound 2.53 µM,0.616
same,relative viability,[8]; first compound 8 µM,0.627
same,relative viability,[9]; first compound 0.08 µM,0.821
same,relative viability,[9]; first compound 0.253 µM,0.907
same,relative viability,[9]; first compound 0.8 µM,0.848
same,relative viability,[9]; first compound 8 µM,0.78
same,relative viability,[10]; first compound 0.08 µM,1.23
same,relative viability,[10]; first compound 0.253 µM,1.04
same,relative viability,[10]; first compound 0.8 µM,0.913
same,relative viability,[10]; first compound 8 µM,1.05
same,relative viability,[11]; first compound 0.08 µM,0.612
same,relative viability,[11]; first compound 0.253 µM,0.583
same,relative viability,[11]; first compound 0.8 µM,0.722
same,relative viability,[11]; first compound 8 µM,0.588
same,relative viability,[12]; first compound 0.08 µM,0.922
same,relative viability,[12]; first compound 0.253 µM,0.946
same,relative viability,[12]; first compound 0.8 µM,1.05
same,relative viability,[12]; first compound 8 µM,0.825
same,relative viability,[13]; first compound 0.08 µM,0.527
same,relative viability,[13]; first compound 0.253 µM,0.636
same,relative viability,[13]; first compound 0.8 µM,0.746
same,relative viability,[13]; first compound 8 µM,0.551
NCI-H1623,relative viability,[1]; 0.08 µM,0.967
same,relative viability,[1]; 0.253 µM,0.953
same,relative viability,[1]; 0.8 µM,0.977
same,relative viability,[1]; 2.53 µM,0.681
same,relative viability,[1]; 8 µM,0.949
same,relative viability,[4]; first compound 0.08 µM,0.489
same,relative viability,[4]; first compound 0.253 µM,0.483
same,relative viability,[4]; first compound 0.8 µM,0.575
same,relative viability,[4]; first compound 2.53 µM,0.381
same,relative viability,[4]; first compound 8 µM,0.463
same,relative viability,[14]; first compound 0.08 µM,0.789
same,relative viability,[14]; first compound 0.253 µM,0.856
same,relative viability,[14]; first compound 0.8 µM,0.976
same,relative viability,[14]; first compound 2.53 µM,0.721
same,relative viability,[14]; first compound 8 µM,0.887
same,relative viability,[5]; first compound 0.08 µM,0.537
same,relative viability,[5]; first compound 0.253 µM,0.453
same,relative viability,[5]; first compound 0.8 µM,0.454
same,relative viability,[5]; first compound 2.53 µM,0.374
same,relative viability,[5]; first compound 8 µM,0.396
same,relative viability,[6]; first compound 0.08 µM,0.47
same,relative viability,[6]; first compound 0.253 µM,0.519
same,relative viability,[6]; first compound 0.8 µM,0.474
same,relative viability,[6]; first compound 2.53 µM,0.391
same,relative viability,[6]; first compound 8 µM,0.409
same,relative viability,[7]; first compound 0.08 µM,0.484
same,relative viability,[7]; first compound 0.253 µM,0.553
same,relative viability,[7]; first compound 0.8 µM,0.619
same,relative viability,[7]; first compound 2.53 µM,0.477
same,relative viability,[7]; first compound 8 µM,0.489
same,relative viability,[8]; first compound 0.08 µM,0.561
same,relative viability,[8]; first compound 0.253 µM,0.604
same,relative viability,[8]; first compound 0.8 µM,0.609
same,relative viability,[8]; first compound 2.53 µM,0.508
same,relative viability,[8]; first compound 8 µM,0.518
